Data on 7 molecules can be found in ChEMBL document CHEMBL4000250, “Synthesis of new derivatives of 21-imidazolyl-16-dehydropregnenolone as inhibitors of 5α-reductase 2 and with cytotoxic activity in cancer cells” (Bioorg Med Chem, 2017).

Calls of active or inactive are those of the source. The rule behind the calls is not given here.

The test system of data set [1] is Syrian golden hamster. The experiment in a line: Hyperplasia activity in castrated golden hamster assessed as seminal vesicles weight at 2 mg/kg, sc co-administered with testosterone for 6 days (reference value: 200.6 +/- 55 mg). The data set is classed as functional, Mesocricetus auratus.
Another data set deals with SK-LU-1. The data set can be described thus: Cytotoxicity against human SKLU1 cells assessed as growth inhibition at 50 uM after 48 hrs by sulforhodamine B assay relative to control. It is filed as functional. The following applies: for inhibition of growth at 50 µM: SK-LU-1, 48 h, read-out: GI.
Another data set deals with PC-3. The experiment in a line: Cytotoxicity against human PC3 cells assessed as growth inhibition at 50 uM after 48 hrs by sulforhodamine B assay relative to control. The following applies: for inhibition of growth at 50 µM: PC-3, 48 h, read-out: GI. The data set is classed as functional. Background: The SRB assay estimates cell density from bound dye.
Data set [2] deals with T1, Androgen receptor (Rattus norvegicus) (UniProt P15207).
T1 sequence (whole entry): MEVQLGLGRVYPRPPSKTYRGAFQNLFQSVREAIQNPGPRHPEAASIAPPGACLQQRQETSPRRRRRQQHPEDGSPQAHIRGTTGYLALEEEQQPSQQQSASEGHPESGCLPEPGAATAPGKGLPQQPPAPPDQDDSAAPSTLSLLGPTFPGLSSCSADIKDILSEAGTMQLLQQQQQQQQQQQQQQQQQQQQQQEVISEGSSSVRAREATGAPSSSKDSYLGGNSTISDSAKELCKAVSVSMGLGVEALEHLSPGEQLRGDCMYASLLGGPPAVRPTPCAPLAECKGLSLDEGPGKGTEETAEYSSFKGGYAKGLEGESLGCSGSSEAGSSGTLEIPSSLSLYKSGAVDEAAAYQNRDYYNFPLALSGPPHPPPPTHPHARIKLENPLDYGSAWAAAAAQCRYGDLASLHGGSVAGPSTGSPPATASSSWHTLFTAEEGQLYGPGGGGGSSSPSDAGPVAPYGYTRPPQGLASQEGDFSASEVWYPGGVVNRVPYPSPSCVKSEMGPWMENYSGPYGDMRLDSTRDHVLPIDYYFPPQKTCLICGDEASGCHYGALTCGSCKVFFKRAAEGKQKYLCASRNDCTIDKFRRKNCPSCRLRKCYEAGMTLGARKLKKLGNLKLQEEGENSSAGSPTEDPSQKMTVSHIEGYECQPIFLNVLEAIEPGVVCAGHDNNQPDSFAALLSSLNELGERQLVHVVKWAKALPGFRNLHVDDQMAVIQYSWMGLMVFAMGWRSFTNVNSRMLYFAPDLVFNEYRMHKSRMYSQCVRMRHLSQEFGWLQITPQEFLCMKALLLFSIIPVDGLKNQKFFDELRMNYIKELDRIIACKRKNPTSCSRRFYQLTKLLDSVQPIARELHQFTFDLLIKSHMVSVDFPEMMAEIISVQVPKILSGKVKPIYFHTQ
The experiment in a line: Displacement of [3H]-MIB from rat prostate cytosolic androgen receptor by liquid scintillation counting method. (In general: Displacement assays read how much labelled ligand stays bound in the presence of the test substance.)

For data set [3], the target named is T2, 3-oxo-5-alpha-steroid 4-dehydrogenase 1 (Rattus norvegicus, UniProt P24008).
T2 sequence (P24008 whole entry): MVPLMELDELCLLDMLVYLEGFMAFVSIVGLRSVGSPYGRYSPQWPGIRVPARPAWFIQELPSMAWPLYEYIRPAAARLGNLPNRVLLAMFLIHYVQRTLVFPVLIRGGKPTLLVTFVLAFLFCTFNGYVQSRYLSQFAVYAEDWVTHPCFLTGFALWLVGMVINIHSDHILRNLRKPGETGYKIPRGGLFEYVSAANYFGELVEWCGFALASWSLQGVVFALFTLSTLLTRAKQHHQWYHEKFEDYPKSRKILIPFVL
The experiment in a line: Inhibition of rat liver microsomal 5-alpha reductase 1 assessed as decrease in conversion of testosterone to dihydrotestosterone by chromatographic method. (Liver microsomes are vesicles of endoplasmic reticulum, rich in cytochrome P450 enzymes.)

Data set [4] has as its system Syrian golden hamster. The data set can be described thus: Hyperplasia activity in castrated golden hamster assessed as diameter of pigmented spot of flank organs at 2 mg/kg, sc administered for 6 days (reference value: 5.65 +/- 1.12 mm). The data set is classed as functional, Mesocricetus auratus.
The subject of data set [5] is Syrian golden hamster. The data set can be described thus: Hyperplasia activity in castrated golden hamster assessed as prostate weight at 2 mg/kg, sc co-administered with testosterone for 6 days (reference value: 98 +/- 12.6 mg). The data set is classed as functional, Mesocricetus auratus.
Data set [6] relates to Syrian golden hamster. The experiment in a line: Toxicity in castrated golden hamster at 2 mg/kg, sc co-administered with testosterone for 6 days. It is filed as organism-based, Mesocricetus auratus. Particulars: in vivo, 144 h.
In data set [7] the target is T3, 3-oxo-5-alpha-steroid 4-dehydrogenase 2 (Homo sapiens, UniProt P31213).
T3 sequence (P31213 whole entry): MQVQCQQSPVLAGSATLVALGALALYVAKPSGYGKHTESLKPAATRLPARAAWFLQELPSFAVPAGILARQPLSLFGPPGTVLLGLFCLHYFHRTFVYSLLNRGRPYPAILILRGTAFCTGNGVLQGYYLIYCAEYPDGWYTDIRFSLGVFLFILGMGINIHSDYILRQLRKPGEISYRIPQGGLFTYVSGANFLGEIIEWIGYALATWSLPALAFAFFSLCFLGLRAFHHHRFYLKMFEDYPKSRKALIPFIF
The data set can be described thus: Inhibition of human prostate 5-alpha reductase 2 assessed as decrease in conversion of testosterone to dihydrotestosterone by chromatographic method.

Another data set relates to MCF7. The experiment in a line: Cytotoxicity against human MCF7 cells assessed as growth inhibition at 50 uM after 48 hrs by sulforhodamine B assay relative to control. It is filed as functional. Particulars: for inhibition of growth at 50 µM: MCF7, 48 h, read-out: GI.

Broadly, the IC50 is the concentration needed to halve the response being measured. For the molecule `CCCC(=O)O[C@H]1CC[C@@]2(C)C(=CC[C@@H]3[C@@H]2CC[C@]2(C)C(C(=O)Cn4ccnc4)=CC[C@@H]32)C1`, the Activity was 217.45 mg in the data set with Syrian golden hamster [1], 1.98 mm in the data set with Syrian golden hamster [4], 83.43 mg in the data set on Syrian golden hamster [5] and “Non-Toxic” in the data set on Syrian golden hamster [6]. Also, the inhibition of growth at 50 µM came to 25.2% in the data set with SK-LU-1, 0% in the data set with PC-3 and 0% in the data set on MCF7. Besides, in [2], the inhibition result was “inactive”. For the same molecule, the IC50 result in data set [3] and in [7] was “Not Active” each time.

As for `C[C@]12CC[C@H](O)CC1=CC[C@@H]1[C@@H]2CC[C@]2(C)C(C(=O)Cn3ccnc3)=CC[C@@H]12`, the results for the inhibition of growth at 50 µM in the data set with SK-LU-1, in the data set with PC-3 and with MCF7 were 74.8%, 96.2% and 89.4%, respectively. Besides, the inhibition entry in data set [2] was “inactive”. Besides, the half-inhibitory concentration (IC50) result in data set [3] is “Not Active”; in data set [7] (read-out: IC50), 119000 nM.

For `C[C@]12CC[C@H](OC(=O)C3CCC3)CC1=CC[C@@H]1[C@@H]2CC[C@]2(C)C(C(=O)Cn3ccnc3)=CC[C@@H]12`, the Activity is 145.2 mg in the data set on Syrian golden hamster [1], 3 mm with Syrian golden hamster [4], 71.3 mg with Syrian golden hamster [5] and “Non-Toxic” in the data set with Syrian golden hamster [6]. Moreover, the “growth inhibition (GI)” value with SK-LU-1, with PC-3 and in the data set on MCF7 was “inactive” in each case. Besides, in [2], the inhibition result is “inactive”. For the same molecule, the results for the IC50 entry in data set [3] and in [7] (read-out: IC50) were “Not Active” and 76.4 nM, respectively.

On to `CCC(=O)O[C@H]1CC[C@@]2(C)C(=CC[C@@H]3[C@@H]2CC[C@]2(C)C(C(=O)Cn4ccnc4)=CC[C@@H]32)C1`, for which the Activity was 231.7 mg with Syrian golden hamster [1], 1.8 mm in the data set on Syrian golden hamster [4], 88.4 mg in the data set on Syrian golden hamster [5] and “Non-Toxic” in the data set with Syrian golden hamster [6]. In addition, the inhibition of growth at 50 µM with SK-LU-1 turned out to be 16.8%; in the data set on PC-3, 22.6%; in the data set on MCF7, 0%. In data set [2], the inhibition result is “inactive”. In addition, the IC50 result in [3] and in data set [7] was “Not Active” in each case.

For `CC(=O)O[C@H]1CC[C@@]2(C)C(=CC[C@@H]3[C@@H]2CC[C@]2(C)C(C(C)=O)=CC[C@@H]32)C1`, the inhibition of growth at 50 µM turned out to be 12.8% with SK-LU-1, 21.4% with PC-3 and 25.5% with MCF7. Also, in data set [2], the inhibition entry was “inactive”. Moreover, the IC50 entry in [3] and in [7] was “Not Active” in each case.

As to `C[C@]12CC[C@H](OC(=O)C3CCCCC3)CC1=CC[C@@H]1[C@@H]2CC[C@]2(C)C(C(=O)Cn3ccnc3)=CC[C@@H]12`, the Activity with Syrian golden hamster [1] is reported as 143.68 mg; in the data set on Syrian golden hamster [4], 2.4 mm; in the data set on Syrian golden hamster [5], 54.3 mg; in the data set with Syrian golden hamster [6], “Non-Toxic”. Moreover, the “growth inhibition (GI)” value in the data set with SK-LU-1, in the data set on PC-3 and with MCF7 was “inactive” each time. Further, the inhibition entry in [2] is “inactive”. In addition, the IC50 result in [3] was “Not Active”; in [7] (read-out: IC50), 29.3 nM.

`C[C@]12CC[C@H](OC(=O)C3CC3)CC1=CC[C@@H]1[C@@H]2CC[C@]2(C)C(C(=O)Cn3ccnc3)=CC[C@@H]12`: the Activity in the data set with Syrian golden hamster [1] is given as 160.9 mg; with Syrian golden hamster [4], 3.4 mm; in the data set on Syrian golden hamster [5], 77.1 mg; with Syrian golden hamster [6] it was “Non-Toxic”. The “growth inhibition (GI)” value in the data set with SK-LU-1, in the data set with PC-3 and in the data set with MCF7 was “inactive” each time. Also, the inhibition result in data set [2] is “inactive”. In addition, the IC50 result was “Not Active” in data set [3] and 711 nM in [7] (read-out: IC50).
